Experimental findings from BindingDB's records for doi:10.1016/s0960-894x(01)00814-9 (Friedrich-Alexander University, 2002) are described below.

The structures appear in SMILES notation.

The target in this assay is 5-hydroxytryptamine receptor 1A (Sus scrofa). The assay is described as follows: Compound was tested in vitro for its ability to compete with [3H]8-OH-DPAT at 5-hydroxytryptamine 1A receptor in porcine brain homogenate.

`N#Cc1cccc2c(CN3CCN(c4ccc(Cl)cc4)CC3)cnn12` [3-[4-(4-Chloro-phenyl)-piperazin-1-ylmethyl]-pyrazolo[1,5-a]pyridine-7-carbonitrile]: the Ki turned out to be 2.2 µM.
